Assay results as given in patent publication US10227369B2, “Short-chain fatty acid hexosamine analogs and their use in tissue engineering applications” (THE JOHNS HOPKINS UNIVERSITY, priority 2013, dated 2019).
Entries after “also recorded” stand apart in the source; their conditions may differ.

Columns and labels:
[1] = test system: unstimulated chondrocytes; experiment: Unstimulated (no IL-1β) chondrocytes in 3D PEGDA hydrogels: biochemical analysis and histology; type: cell-based, bovine
Description: (§1) Cell Isolation and Culturing. Bovine chondrocytes were isolated from 4- to 8-week-old calves (Research 87, Inc., Boylston, Mass.), as previously described. Briefly, cartilage was dissected from the femoral patellar groove and condyles and minced into approximately 1 mm^2 pieces. Cells were isolated from the tissue by digesting overnight at 37° C. with 2 mg/ml type II collagenase (Worthington Biochemical Corp., Lakewood, N.J.), 5% fetal bovine serum (FBS), 100 U/ml penicillin and 100 μg/ml streptomycin on an orbital shaker. The cell suspension was passed through a 70 μm cell strainer, followed by centrifugation. Cells were washed 3 times using sterile phosphate buffered saline (PBS). Chondrocyte medium was composed of high glucose Dulbecco's Modified Eagle's Medium (DMEM) supplemented with 10 mM HEPES, 0.4 mM L-proline, 50 μg/ml ascorbic acid, 10% (v/v) fetal bovine serum (FBS; Hyclone Laboratories, Inc., Logan, Utah), 0.1 mM non-essential amino acids, 100 U/ml penicillin and 100 μg/ml streptomycin.
(§2) Photoencapsulation in Poly(Ethylene Glycol)-Diacrylate (PEGDA) Hydrogels and Construct Culturing. For all 3D culture experiments, cells were photoencapsulated in PEGDA hydrogels, as previously described. Briefly, 100 mg PEGDA (3.4 kDa, SunBio, Anyang City, South Korea) was dissolved in 1 ml sterile PBS. A photoinitiator solution of Irgacure® 2959 (CIBA Specialty Chemicals) was prepared by dissolving 100 mg of Irgacure® 2959 in 1 ml 70% ethanol. Five microliters of the Irgacure® 2959 solution was added to 1 ml of PEGDA solution. Cells were suspended in the hydrogel precursor solution at a density of 20 million cells/ml and polymerized in sterile molds. A high cell density was chosen as it has been shown. Based on our previous studies a high cell density was chosen to best to support a cell phenotype and differentiation and cell phenotype. Polymerization was carried out using UV light (365 nm, 3.2 mW/cm^2) exposure for 5 minutes.
(§3) Biochemical Analysis. The constructs (n=3 for chondrocyte experiments and n=4 for chondrogenic experiments) were lyophilized for 48 hours and the dry weights measured. Constructs were then homogenized in 125 μg/ml papainase (Worthington Biochemical Corp., Lakewood, N.J.) and digested for 16 hours at 60° C. Quantification of DNA content was carried out using a Hoescht Dye 33342 DNA assay. Calf thymus DNA was used to generate standard curves. Quantification of sulfated glycosaminoglycans (sGAG), a molecule found in cartilage ECM, was carried out using a 1,9-dimethylmethylene blue (DMMB) dye assay; chondroitin sulfate was used to generate standard curves. Quantification of collagen was carried out via measuring hydroxyproline content after hydrolyzing in 6 N HCl overnight at 120° C. The reaction of hydroxyproline with chloramine-T and p-dimethylaminobenzaldehyde was performed as a measure of total collagen content; hydroxyproline was used to generate standard curves.
(§4) Histology and Immunohistochemistry. Constructs were fixed in 10% formalin or 4% paraformaldehyde followed by dehydration in increasing concentrations of ethanol, embedded in paraffin and sliced into 5 μm sections. After paraffin removal and subsequent rehydration, sections were stained for proteoglycans using Safranin-O and fast green or prepared for immunohistochemistry. For immunohistochemical staining of type II collagen, endogenous peroxidase was quenched using 3% (v/v) hydrogen peroxide in methanol. Sections were then incubated at 37° C. with 2.5% (w/v) hyaluronidase and stained using a Histostain-SP Kit (AEC, Broad Spectrum) (Life Technologies, Grand Island, N.Y.) following the manufacturer's instructions. Primary antibody for type II collagen (Fitzgerald Industries International, Acton, Mass.) was used at a dilution of 1:100 in 1% (w/v) BSA dissolved in PBS.

[2] = test system: IL-1β-stimulated chondrocytes; experiment: IL-1β-stimulated chondrocytes in 3D PEGDA hydrogels: biochemical analysis (DNA, sGAG, collagen), histology, immunohistochemistry; type: cell-based, bovine; conditions: 10 ng/ml IL-1β
Description: as §1, §2
For chondrocyte experiments, the cell-laden hydrogels were cultured in chondrocyte medium supplemented with 10 ng/ml IL-1β for 3 days. Following the initial 3 days, constructs were cultured with medium containing specific concentrations of hexosamine analog with 10 ng/ml IL-1β for an additional 21 days. The medium was changed 3 times per week.
as §3
as §4, with “Primary antibody for type II collagen (Fitzgerald Industries International, Acton, Mass.) was used at a dilution of 1:100 in 1% (w/v) BSA dissolved in PBS.” left out

[3] = across the concentrations evaluated

SMILES | DNA content of cell-laden hydrogels (cell viability) ([1]; 21 days exposure) | sGAG deposition normalized to DNA [1, 3] | total collagen deposition normalized to DNA [1, 3] | DNA content of cell-laden hydrogels (cell viability) ([2]; 21 days exposure, up to 150 μM) | sGAG accumulation normalized to DNA ([2]; 21 days, across the concentrations evaluated) | total collagen deposition normalized to DNA [2, 3] | proteoglycan deposition (Safranin-O staining) ([2]; 21 days, at 150 μM) | sGAG accumulation normalized to DNA ([2]; 21 days, at 150 μM)
CCCC(=O)OC1OC(CO)[C@@H](OC(=O)CCC)[C@H](OC(=O)CCC)C1NC(C)=O (some centres unmarked) [1,3,4-O-Bu3GlcNAc, reference compound] | no statistical differences | did not alter; also recorded: no statistical differences | did not alter; also recorded: no statistical differences | no statistical differences | did not alter; also recorded: no statistical differences | did not alter; also recorded: no statistical differences |  | 
CCCC(=O)OC[C@H]1OC(O)[C@@H](NC(C)=O)[C@@H](OC(=O)CCC)[C@@H]1OC(=O)CCC (some centres unmarked) [ManNAc-a, 3,4,6-O-Bu3ManNAc] |  |  |  |  |  |  | further increase | further increase
